Experiments:
blood glucose level = assay: Hypoglycemic activity in hyperglycemic KK mice (blood glucose level); type: in vivo, male mice of the KK strain; settings: 1 mg/kg oral, 18 hours, vs solvent-only group
Method: The test animals used were hyperglycemic male mice of the KK strain, each having a body weight of at least 40 g. The compounds under test were mixed with a 1:1 by volume mixture of polyethylene glycol 400 and water. Each animal was orally administered a test compound in the amount shown in the following Table 6 and then allowed to feed freely for 18 hours. At the end of this time, blood was collected from the tail veins without anesthesia. The blood glucose level (BGL) was determined by means of a glucose analyzer (GL-101, manufactured by Mitsubishi Kasei Co. or a Glucoroder-F manufactured by Shino Test Co.). The hypoglycemic effect was calculated by the following equation: Hypoglycemic effect (%)=[(BGLs -BGLt)/BGLs ]×100 where: BGLs is the blood glucose level in the group administered a solvent only, but no active compound; and BGLt is the blood glucose level in the group administered a test compound. The results are shown in the following Table 6, in which each compound of the present invention is identified by the number of one of the following Examples in which its preparation is illustrated.

[1] = target: T1, Bovine lens aldose reductase (Bos taurus, UniProt P16116); assay: Inhibition of Aldose reductase; type: biochemical; settings: for inhibition at 5 µg/mL: read-out: Inhibition (%) at 5 μg/ml
T1 construct: Bovine lens aldose reductase was separated and partially purified; from tissue; host or cells: bovine lens
Method: Bovine lens aldose reductase was separated and partially purified by the method of S. Hyman and J. H. Kinoshita [J. Biol. Chem. 240, 877 (1965)] and K. Inagaki, I. Miwa and J. Okuda [Arch. Biochem. Biophys., 216, 337 (1982)], and its activity was determined photometrically by the method of Varma et al. [Biochem. Pharmac., 25, 2505 (1976)]. Inhibition of enzyme activity was measured for the compounds of the present invention at a concentration of 5 μg/ml, and the measured values were used to calculate the IC50 values.

IC50 [1] [nM] | inhibition at 5 µg/mL [1] [%] | SMILES | Hypoglycemic effect (%) (blood glucose level)
2100 | 80.3 | Cn1c(COc2ccc(CC3SC(=O)NC3=O)cc2)nc2ccccc21 (centres unmarked) [Example 1, 5-[4-(1-Methylbenzimidazol-2-ylmethoxy)benzyl]thiazolidine-2,4-dione] | 36.2
 |  | COc1ccc2nc(COc3ccc(CC4SC(=O)NC4=O)cc3)n(C)c2c1 (centres unmarked) [Example 2, 5-[4-(6-Methoxy-1-methylbenzimidazol-2-ylmethoxy)benzyl]thiazolidine-2,4-dione] | 27.2
3290 | 79.6 | Cc1c(O)c(C)c2nc(COc3ccc(CC4SC(=O)NC4=O)cc3)n(C)c2c1C (centres unmarked) [Example 3, 5-[4-(5-Hydroxy-1,4,6,7-tetramethylbenzimidazol-2-ylmethoxy)benzyl]thiazolidine-2,4-dione] | 11.2
 |  | Cc1c(O)c(C)c2nc(COc3ccc(CC4SC(=O)NC4=O)cc3)n(C)c2c1C.Cl (centres unmarked) [Example 4, 5-[4-(5-Hydroxy-1,4,6,7-tetramethylbenzimidazol-2-ylmethoxy)benzyl]thiazolidine-2,4-dione hydrochloride] | 19.3
